Experiments:
[1] = Maximum absorbance wavelength in pH 7.4 phosphate-buffered saline; assay type: physicochemical; conditions: for λmax: 2 μM in 0.1 M PBS
Experimental: Table 1 includes exemplary compounds according to formula II, in which n is 2, R^1 is —CH2—, m is 2, R^2 is methyl, R^14 to R^17 are methyl, and R^5, R^6, R^8, R^10, R^11 and R^13 are hydrogen. Other substituents are as indicated. The maximum absorbance wavelength (λmax) was measured in pH 7.4 phosphate-buffered saline.
Unless stated otherwise, reactions were conducted in oven-dried glassware under an atmosphere of nitrogen or argon using anhydrous solvents (passed through activated alumina columns) All other commercially obtained reagents were used as received. […] Flash column chromatography was performed using normal phase or reverse phase on a CombiFlash® Rf 200i (Teledyne Isco Inc.). […] Data for ^1H NMR spectra are reported as follows: chemical shift (6 ppm), multiplicity, coupling constant (Hz), and integration. ^13C NMR spectra were recorded on Varian spectrometers (at 100 or 125 MHz). Data for ^13C NMR spectra are reported in terms of chemical shift. IR spectra were recorded on a JASCO FT/IR 4100 spectrometer and are reported in terms of frequency of absorption (cm^−1). High-resolution LC/MS analyses were conducted on a Thermo-Fisher LTQ-Orbitrap-XL hybrid mass spectrometer system with an Ion MAX API electrospray ion source in positive ion mode. Separations were carried out on a narrow-bore (50×2.1 mm), Zorbax Rapid-Resolution, reversed-phase C18 (3.5 μm) column with a flow rate of 250 μL/min with a 10 min, 2-90% gradient of MeCN/H2O containing 0.1% HCOOH. […] Fluorescence traces and quantum yield measurements were recorded on a PTI QuantaMaster steady-state spectrofluorimeter operated by FelixGX 4.0.3 software, with 10 nm excitation and emission slit widths, 0.1 s integration rate, and enabled emission correction.

[2] = Quantum yields, molar absorption coefficients, absorbance and emission spectra; assay type: physicochemical; conditions: for ε (M^−1cm^−1): Table 4 footnote: methanol, method b204: PBS, 25° C.; for λem (nm) / λmax (nm): methanol
[3] = methanol; James et al., Theranostics 2013; cited from earlier work
[4] = assay type: physicochemical; conditions: buffer, pH 7.4
Experimental: Solutions of commercially available IRDye 800 CW (a phenol-substituted heptamethine cyanine available from Li-Cor Biotechnology, Lincoln, Nebr.) and compound 13 (Glut-Cy-503), 10 μM, were prepared in pH 7.4 phosphate-buffered saline and exposed to physiologically relevant concentrations of glutathione (GSH, 1 mM) at room temperature. […] Upon analysis by LCMS, signals consistent with the glutathione adduct were observed concomitant with the disappearance of the phenol (IRDye 800 CW) (FIG. 7).

## CCCN1/C(=C/C=C2\CCCC(/C=C/C3=[N+](CCC)c4ccccc4C3(C)C)=C2N(C)CCO)C(C)(C)c2ccccc21 [Compound 6]
[1]; solvent not given
  broad hypsochromic absorbance maximum: 687 nm

## CCCN1/C(=C/C=C2\CCCC(/C=C/C3=[N+](CCC)c4ccccc4C3(C)C)=C2OCCN(C)C(=O)OCc2ccccc2)C(C)(C)c2ccccc21 [Compound 8]
[1]; pH 7.4, with 20% DMSO (v/v)
  λmax: 763 nm
[2]
  λex: 774 nm
  ε (M^−1cm^−1): 187,000 M^−1cm^−1
  λem (nm): 797 nm
  λmax (nm): 774 nm
[2]; measured in methanol relative to ICG
  Φf: 0.22

## CCCN1/C(=C/C=C2\CCCC(/C=C/C3=[N+](CCC)c4ccccc4C3(C)C)=C2OCCN(C)C(=O)OCC2c3ccccc3-c3ccccc32)C(C)(C)c2ccccc21 [Compound 9]
[1]; pH 7.4, with 20% DMSO (v/v)
  λmax: 765 nm

## CCCN1/C(=C/C=C2\CCCC(/C=C/C3=[N+](CCC)c4ccccc4C3(C)C)=C2OCCN(C)C(=O)CCCC(=O)O)C(C)(C)c2ccccc21 [Compound 10]
[1]; pH 7.4, with 0.1% DMSO (v/v)
  λmax: 760 nm

## CC1(C)C(/C=C/C=C/C=C/C=C2\N(CCCCS(=O)(=O)O)c3ccc4ccccc4c3C2(C)C)=[N+](CCCCS(=O)(=O)[O-])c2ccc3ccccc3c21 [ICG, indocyanine green, reference compound]
[2]
  ε (M^−1cm^−1): 204,000 M^−1cm^−1
  λem (nm): 822 nm
  λmax (nm): 785 nm
[3]
  Φf of standard: 0.078

## CC1(C)C(=CC=C2CCCC(C=CC3=[N+](CCCCS(=O)(=O)[O-])c4ccccc4C3(C)C)=C2Cl)N(CCCCS(=O)(=O)[O-])c2ccccc21.[Na+] [IR783]
[3]
  Φf of standard: 0.084

## CC1(C)C(=CC=C2CCCC(C=CC3=[N+](CCCCCC(=O)[O-])c4ccc(S(=O)(=O)[O-])cc4C3(C)C)=C2Oc2ccc(S(=O)(=O)[O-])cc2)N(CCCCS(=O)(=O)[O-])c2ccc(S(=O)(=O)[O-])cc21.[Na+].[Na+].[Na+].[Na+] [IRDye 800 CW]
[4]
  t1/2 of degradation to the glutathione adduct: 50 min

Reference: patent US10876003B2, “Class of stable heptamethine cyanine fluorophores and biomedical applications thereof” (priority 2014, dated 2020)
